Tests used:
[1] = Solubility; assay type: physicochemical
[2] = system: Mus musculus; experiment: Lethality and toxicity, endoperitoneal administration; assay type: in vivo; design: key to Toxic symptomatology Type: NN = no symptomatology; D = depression; details: for % mortality at the following times after administration 24 h / % mortality at the following times after administration 7 days / Toxic symptomatology Latency / Toxic symptomatology Type: endoperitoneal; for LD50 (mg/kg with reliability limits) 7 days after treatment: ip, probit method
Description: (§1) Unless otherwise specified, the research was carried out using: a) Mg-UCD capsules as such; b) the powdered contents of Mg-UCD capsules; CDCA (chenodeoxycholic acid) and UDCA (ursodeoxycholic acid) as pure substance which in all cases was partly dissolved and partly suspended under warm conditions (T = 30°C) in 10% gum arabic mucilage (so as to administer 10-40 ml of liquid per kg orally). In certain cases, namely in the experiments involving parenteral administration, the active principle of Mg-UCD, the chenodeoxycholic acid and ursodeoxycholic acid were dissolved in distilled water of slightly alkaline pH (5-10 ml/kg).
(§2) The generally acute lethality, toxicity and tolerability were determined by oral administration of the Mg-UCD (by gastric probe) in the Mus musculus, rat and dog. Animals of both sexes were used, none of which were pregnant. They were fasted for about 12 hours before treatment (but allowing them free access to water). The investigations were carried out using the Mg-UCD in powder form. Comparative investigations were carried out on the rat and Mus musculus using the active principle by endoperitoneal administration, and chenodeoxycholic acid and ursodeoxycholic acid by oral administration (using a gastric probe). Each dose was administered to 20 rats or Mus musculus (10 male and 10 female) and to eight dogs (4 male and 4 female). The animals were observed attentively during the 7 days following administration, and any lethality, toxic symptoms, disturbances, functional variations determinable with the eye, behaviour etc. were noted.
(§3) The LD50 was determined 7 days after administration using the probit method.

[3] = system: rat; experiment: as above; assay type: in vivo; design: key to Toxic symptomatology Type: NN = no symptomatology; D = depression; details: for % mortality at the following times after administration 24 h / % mortality at the following times after administration 7 days / Toxic symptomatology Latency / Toxic symptomatology Type: endoperitoneal; for LD50 (mg/kg with reliability limits) 7 days after treatment: ip, probit method
Description: as §1, §2, §3

[4] = system: dog; experiment: Acute lethality and toxicity, oral administration (gastric probe); assay type: in vivo; design: key to Toxic symptomatology Type: NN = no symptomatology; D = depression; details: for % mortality at following times after administration 24 h / % mortality at following times after administration 7 days / Toxic symptomatology Type / Toxic symptomatology Latency: oral; for LD50 (mg/kg with reliability limits) 7 days after treatment: po, also printed as greater than 600 Dts/kg
[5] = Hydrolysis by the gastric juice; details: prodrug supplying its two component acids

double magnesium salt of chenodeoxycholic acid and ursodeoxycholic acid [Mg-UCD]
Solubility ([1]; in alcohol): fairly soluble in alcohol | Solubility ([1]; in water, listed as Mg salt): practically insoluble in water | Solubility ([1]; in water, listed as double salt): insoluble in water | % mortality at the following times after administration 24 h ([2]; M. musculus F, 1000 mg/kg): 0% | % mortality at the following times after administration 7 days ([2]; M. musculus F, 1000 mg/kg): 0% | Toxic symptomatology Latency ([2]; M. musculus F, 1000 mg/kg): 1-2 min | Toxic symptomatology Type ([2]; M. musculus F, 1000 mg/kg): D | % mortality at the following times after administration 24 h ([2]; M. musculus F, 2000 mg/kg): 10% | % mortality at the following times after administration 7 days ([2]; M. musculus F, 2000 mg/kg): 10% | Toxic symptomatology Latency ([2]; M. musculus F, 2000 mg/kg): 1-2 min | Toxic symptomatology Type ([2]; M. musculus F, 2000 mg/kg): D | % mortality at the following times after administration 24 h ([2]; M. musculus F, 4000 mg/kg): 70% | % mortality at the following times after administration 7 days ([2]; M. musculus F, 4000 mg/kg): 70% | Toxic symptomatology Latency ([2]; M. musculus F, 4000 mg/kg): 1-2 min | Toxic symptomatology Type ([2]; M. musculus F, 4000 mg/kg): D | LD50 (mg/kg with reliability limits) 7 days after treatment ([2]; M. musculus F): 2455 (1984-3039) mg/kg | % mortality at the following times after administration 24 h ([2]; M. musculus M, 1000 mg/kg): 0% | % mortality at the following times after administration 7 days ([2]; M. musculus M, 1000 mg/kg): 0% | Toxic symptomatology Latency ([2]; M. musculus M, 1000 mg/kg): 1-2 min | Toxic symptomatology Type ([2]; M. musculus M, 1000 mg/kg): D | % mortality at the following times after administration 24 h ([2]; M. musculus M, 2000 mg/kg): 10% | % mortality at the following times after administration 7 days ([2]; M. musculus M, 2000 mg/kg): 10% | Toxic symptomatology Latency ([2]; M. musculus M, 2000 mg/kg): 1-2 min | Toxic symptomatology Type ([2]; M. musculus M, 2000 mg/kg): D | % mortality at the following times after administration 24 h ([2]; M. musculus M, 4000 mg/kg): 60% | % mortality at the following times after administration 7 days ([2]; M. musculus M, 4000 mg/kg): 60% | Toxic symptomatology Latency ([2]; M. musculus M, 4000 mg/kg): 1-2 min | Toxic symptomatology Type ([2]; M. musculus M, 4000 mg/kg): D | LD50 (mg/kg with reliability limits) 7 days after treatment ([2]; M. musculus M): 2455 (1984-3039) mg/kg | % mortality at the following times after administration 24 h ([3]; Rat F, 1000 mg/kg): 0% | % mortality at the following times after administration 7 days ([3]; Rat F, 1000 mg/kg): 0% | Toxic symptomatology Latency ([3]; Rat F, 1000 mg/kg): 1-2 min | Toxic symptomatology Type ([3]; Rat F, 1000 mg/kg): D | % mortality at the following times after administration 24 h ([3]; Rat F, 2000 mg/kg): 10% | % mortality at the following times after administration 7 days ([3]; Rat F, 2000 mg/kg): 10% | Toxic symptomatology Latency ([3]; Rat F, 2000 mg/kg): 1-2 min | Toxic symptomatology Type ([3]; Rat F, 2000 mg/kg): D | % mortality at the following times after administration 24 h ([3]; Rat F, 4000 mg/kg): 60% | % mortality at the following times after administration 7 days ([3]; Rat F, 4000 mg/kg): 60% | Toxic symptomatology Latency ([3]; Rat F, 4000 mg/kg): 1-2 min | Toxic symptomatology Type ([3]; Rat F, 4000 mg/kg): D | LD50 (mg/kg with reliability limits) 7 days after treatment ([3]; Rat F): 2449 (2063-2906) mg/kg | % mortality at the following times after administration 24 h ([3]; Rat M, 1000 mg/kg): 0% | % mortality at the following times after administration 7 days ([3]; Rat M, 1000 mg/kg): 0% | Toxic symptomatology Latency ([3]; Rat M, 1000 mg/kg): 1-2 min | Toxic symptomatology Type ([3]; Rat M, 1000 mg/kg): D | % mortality at the following times after administration 24 h ([3]; Rat M, 2000 mg/kg): 10% | % mortality at the following times after administration 7 days ([3]; Rat M, 2000 mg/kg): 10% | Toxic symptomatology Latency ([3]; Rat M, 2000 mg/kg): 1-2 min | Toxic symptomatology Type ([3]; Rat M, 2000 mg/kg): D | % mortality at the following times after administration 24 h ([3]; Rat M, 4000 mg/kg): 70% | % mortality at the following times after administration 7 days ([3]; Rat M, 4000 mg/kg): 70% | Toxic symptomatology Latency ([3]; Rat M, 4000 mg/kg): 1-2 min | Toxic symptomatology Type ([3]; Rat M, 4000 mg/kg): D | LD50 (mg/kg with reliability limits) 7 days after treatment ([3]; Rat M): 2288 (1902-2751) mg/kg | % mortality at following times after administration 24 h ([4]; Dog F, 250 mg/kg (60 Dts/kg)): 0% | % mortality at following times after administration 7 days ([4]; Dog F, 250 mg/kg (60 Dts/kg)): 0% | Toxic symptomatology Type ([4]; Dog F, 250 mg/kg (60 Dts/kg)): NN | % mortality at following times after administration 24 h ([4]; Dog F, 2500 mg/kg (600 Dts/kg)): 0% | % mortality at following times after administration 7 days ([4]; Dog F, 2500 mg/kg (600 Dts/kg)): 0% | Toxic symptomatology Latency ([4]; Dog F, 2500 mg/kg (600 Dts/kg)): 5-10 min | Toxic symptomatology Type ([4]; Dog F, 2500 mg/kg (600 Dts/kg)): D | LD50 (mg/kg with reliability limits) 7 days after treatment ([4]; Dog F): greater than 2500 mg/kg (greater than 600 Dts/kg) | % mortality at following times after administration 24 h ([4]; Dog M, 250 mg/kg (60 Dts/kg)): 0% | % mortality at following times after administration 7 days ([4]; Dog M, 250 mg/kg (60 Dts/kg)): 0% | Toxic symptomatology Type ([4]; Dog M, 250 mg/kg (60 Dts/kg)): NN | % mortality at following times after administration 24 h ([4]; Dog M, 2500 mg/kg (600 Dts/kg)): 0% | % mortality at following times after administration 7 days ([4]; Dog M, 2500 mg/kg (600 Dts/kg)): 0% | Toxic symptomatology Latency ([4]; Dog M, 2500 mg/kg (600 Dts/kg)): 5-10 min | Toxic symptomatology Type ([4]; Dog M, 2500 mg/kg (600 Dts/kg)): D | LD50 (mg/kg with reliability limits) 7 days after treatment ([4]; Dog M): greater than 2500 mg/kg (greater than 600 Dts/kg) | any case of death or any significant toxic symptomatology ([4]; dog, oral (gastric probe), 7 days following treatment, individual doses up to 2500 mg/kg of active principle (600 Dts/kg)): does not show | hydrolysis by the gastric juice [5]: hydrolysed slowly

From patent EP0092073A1, “Magnesium salt of chenodeoxycholic acid and ursodeoxycholic acid, the process for its preparation, and therapeutic compositions which contain it as active principle” (SCHWARZ ITALIA S.p.A., priority 1982, dated 1983)
